Assay results reported in US20130196986A1 (priority 2010, published 2013).

Molecular target: T1, P2X7 receptor (Homo sapiens, UniProt Q99572)
T1 construct: stably expressing the full length P2X7 receptor; expressed in transfected cells
T1 sequence (Q99572 1-595): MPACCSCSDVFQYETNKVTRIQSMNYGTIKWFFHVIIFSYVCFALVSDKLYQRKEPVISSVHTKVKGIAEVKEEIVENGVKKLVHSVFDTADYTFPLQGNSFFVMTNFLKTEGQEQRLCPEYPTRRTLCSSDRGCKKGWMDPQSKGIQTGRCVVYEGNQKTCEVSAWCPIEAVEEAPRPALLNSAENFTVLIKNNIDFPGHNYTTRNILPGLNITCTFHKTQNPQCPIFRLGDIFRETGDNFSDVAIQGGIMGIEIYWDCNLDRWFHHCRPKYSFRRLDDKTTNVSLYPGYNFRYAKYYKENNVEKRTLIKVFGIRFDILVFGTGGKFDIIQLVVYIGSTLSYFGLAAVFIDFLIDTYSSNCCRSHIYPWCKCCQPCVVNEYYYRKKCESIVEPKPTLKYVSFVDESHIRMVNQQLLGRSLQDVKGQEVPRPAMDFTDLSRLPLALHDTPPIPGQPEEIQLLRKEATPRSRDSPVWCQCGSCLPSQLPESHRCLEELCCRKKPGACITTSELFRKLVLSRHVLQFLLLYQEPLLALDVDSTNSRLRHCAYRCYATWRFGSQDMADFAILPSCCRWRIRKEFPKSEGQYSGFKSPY
Assay: Ca++ flux assay (FLIPR) in P2X7-HEK-293 cell line stably expressing the full length P2X7 receptor, Bz-ATP activation
Type: cell-based
Settings: P2X7-HEK-293 cells; agonist Bz-ATP; fluorescence as total area over 90 seconds; read-out: P2X7 Ca Flux hu IC50
In short: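 HEK-293 cells stably expressing full-length P2X7 were loaded with Ca++-sensitive dye for 1 h, with compound added during loading. Cells were stimulated with Bz-ATP on FLIPR. Fluorescence was integrated as total area over 90 s, and IC50 was taken as 50% inhibition of the maximal Ca++ response.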

O=c1c2nnc(S(=O)(=O)Cc3ccccc3Cl)n2ccn1-c1cccc(C(F)(F)F)c1Cl [Compound 119, 7-(2-chloro-3-(trifluoromethyl)phenyl)-3-(2-chlorobenzylsulfonyl)-[1,2,4]triazolo[4,3-a]pyrazin-8(7H)-one]
IC50: 0.011 µM

Cc1c(-n2ccn3c(SCc4ccsc4)nnc3c2=O)cccc1C(F)(F)F [Compound 14, 7-(2-methyl-3-(trifluoromethyl)phenyl)-3-(thiophen-3-ylmethylthio)-[1,2,4]triazolo[4,3-a]pyrazin-8(7H)-one]
IC50: 0.0381 µM

Cc1c(Cl)cccc1-n1ccn2c(SCC(=O)OC(C)(C)C)nnc2c1=O [Compound 107, tert-butyl 2-(7-(3-chloro-2-methylphenyl)-8-oxo-7,8-dihydro-[1,2,4]triazolo[4,3-a]pyrazin-3-ylthio)acetate]
IC50: 1.82 µM

Cc1ccc(-c2ccccc2CS(=O)(=O)c2nnc3c(=O)n(-c4cccc(C(F)(F)F)c4C)ccn23)s1 [Compound 141]
IC50: 0.037 µM

Cc1c(Cl)cccc1-n1ccn2c(SCc3cc(F)c(F)c(F)c3)nnc2c1=O [Compound 102, 7-(3-chloro-2-methylphenyl)-3-(3,4,5-trifluorobenzylthio)-[1,2,4]triazolo[4,3-a]pyrazin-8(7H)-one]
IC50: 0.925 µM

Cc1c(-n2ccn3c(SCc4ccccc4-c4ccc(F)cc4)nnc3c2=O)cccc1C(F)(F)F [Compound 10, 3-((4′-fluorobiphenyl-2-yl)rnethylthio)-7-(2-methyl-3-(trifluoromethyl)phenyl)-[1,2,4]triazolo[4,3-a]pyrazin-8(7H)-one]
IC50: 0.0426 µM

Cc1c(Cl)cccc1-n1ccn2c(SCc3cc(Cl)cc(Cl)c3)nnc2c1=O [Compound 101, 7-(3-chloro-2-methylphenyl)-3-(3,5-dichlorobenzylthio)-[1,2,4]triazolo[4,3-a]pyrazin-8(7H)-one]
IC50: 0.167 µM

Cc1c(Cl)cccc1-n1ccn2c(SCc3ccccn3)nnc2c1=O [Compound 98, 7-(3-chloro-2-methylphenyl)-3-(pyridin-2-ylmethylthio)-[1,2,4]thazolo[4,3-a]pyrazin-8(7H)-one]
IC50: 2.34 µM

Cc1c(Cl)cccc1-n1ccn2c([S+]([O-])Cc3cc(Cl)cc(Cl)c3)nnc2c1=O (stereo not drawn) [Compound 162, 7-(3-chloro-2-methylphenyl)-3-(3,5-dichlorobenzylsulfinyl)-[1,2,4]triazolo[4,3-a]pyrazin-8(7H)-one]
IC50: 0.335 µM

Cc1c(Cl)cccc1-n1ccn2c(SCc3ccccc3C#N)nnc2c1=O [Compound 87, 2((7-(3-chloro-2-methylphenyl)-8-oxo-7,8-dihydro-[1,2,4]triazolo[4,3-a]pyrazin-3-ylthio)methyl)benzonitrile]
IC50: 0.434 µM

Cc1c(Cl)cccc1-n1ccn2c(SCc3c(F)cccc3C(F)(F)F)nnc2c1=O [Compound 68, 7-(3-chloro-2-methylphenyl)-3-(2-fluoro-6-(trifluoromethyl)benzylthio)-[1,2,4]triazolo[4,3-a]pyrazin-8(7H)-one]
IC50: 0.475 µM

Cc1c(Cl)cccc1-n1ccn2c(SCc3ccccc3-c3cccs3)nnc2c1=O [Compound 40, 7-(3-chloro-2-methylphenyl)-3-(2-(thiophen-2-yl)benzylthio)-[1,2,4]triazolo[4,3-a]pyrazin-8(7H)-one]
IC50: 0.0458 µM

Cc1c(Cl)cccc1-n1ccn2c(SCc3ccc(F)c(F)c3)nnc2c1=O [Compound 115, 7-(3-chloro-2-methylphenyl)-3-(3,4-difluorobenzylthio)-[1,2,4]triazolo[4,3-a]pyrazin-8(7H)-one]
IC50: 0.893 µM

Cc1c(Cl)cccc1-n1ccn2c(SCc3c(F)cccc3F)nnc2c1=O [Compound 105, 7-(3-chloro-2-methylphenyl)-3-(2,6-difluorobenzylthio)-[1,2,4]triazolo[4,3-a]pyrazin-8(7H)-one]
IC50: 0.389 µM

Cc1c(Cl)cccc1-n1ccn2c(SC(=O)N(C)c3ccccc3)nnc2c1=O [Compound 50, S-7-(3-chloro-2-methylphenyl)-8-oxo-7,8-dihydro-[1,2,4]triazolo[4,3-a]pyrazin-3-yl methyl(phenyl)carbamothioate]
IC50: 6.53 µM
